One test deals with T1, human DGKα (Homo sapiens, UniProt P23743).
T1 construct: TVMV protease cleavage site (C); Hexa-His (C); made in house; host or cells: Sf9 insect cells (baculovirus, Bac-to-Bac)
Briefly: DGKα LIPGLO assay (extruded liposome substrate), in vitro DGK inhibition. In kind it is biochemical. To be noted: read-out: DGKa LIPGLO IC50.

In the next test the target is T2, human DGKζ (Homo sapiens, UniProt Q13574).
T2 construct: TVMV protease cleavage site (C); Hexa-His (C); made in house; host or cells: Sf9 insect cells (baculovirus, Bac-to-Bac)
Nature of the test: DGKζ LIPGLO assay (extruded liposome substrate), in vitro DGK inhibition. In kind it is biochemical. As to conditions: read-out: DGKz LIPGLO IC50.

Another test relates to Human venous whole blood. Nature of the test: Human whole blood IFN-γ assay.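 Note: blood from healthy donors exposed to compound for 1 h before stimulation with anti-CD3 and anti-CD28 at 1 µg/mL each, IFN-γ quantified in supernatant by AlphaLISA.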 In kind it is cell-based. To be noted: human whole blood, read-out: INFg Whole Blood Normalized Agonist EC50.
[1] abbreviates: Homo sapiens, 24 h, normalized to 3 μM reference compound with anti-CD3 plus anti-CD28 as 100% activation.
Where [2] appears, read: normalized to 3 μM reference compound with anti-CD3 plus anti-CD28 as 100% activation.
[3] abbreviates: anti-CD3 plus anti-CD28, 24 hours, 3 μM reference compound = 100% activation.

Molecules are shown by their SMILES. Like-named read-outs stand apart in the source and are kept apart here.

This note sets out measurements from patent US10669272B2, “Substituted naphthyridinone compounds useful as T cell activators” (BRISTOL-MYERS SQUIBB COMPANY, priority 2018, dated 2020).

One may read the IC50 as the midpoint of a concentration-inhibition curve. One may read the EC50 as the concentration that produces a half-maximal response.

T2 sequence (Q13574 with tags, fused parts or gaps isoform Q13574-4): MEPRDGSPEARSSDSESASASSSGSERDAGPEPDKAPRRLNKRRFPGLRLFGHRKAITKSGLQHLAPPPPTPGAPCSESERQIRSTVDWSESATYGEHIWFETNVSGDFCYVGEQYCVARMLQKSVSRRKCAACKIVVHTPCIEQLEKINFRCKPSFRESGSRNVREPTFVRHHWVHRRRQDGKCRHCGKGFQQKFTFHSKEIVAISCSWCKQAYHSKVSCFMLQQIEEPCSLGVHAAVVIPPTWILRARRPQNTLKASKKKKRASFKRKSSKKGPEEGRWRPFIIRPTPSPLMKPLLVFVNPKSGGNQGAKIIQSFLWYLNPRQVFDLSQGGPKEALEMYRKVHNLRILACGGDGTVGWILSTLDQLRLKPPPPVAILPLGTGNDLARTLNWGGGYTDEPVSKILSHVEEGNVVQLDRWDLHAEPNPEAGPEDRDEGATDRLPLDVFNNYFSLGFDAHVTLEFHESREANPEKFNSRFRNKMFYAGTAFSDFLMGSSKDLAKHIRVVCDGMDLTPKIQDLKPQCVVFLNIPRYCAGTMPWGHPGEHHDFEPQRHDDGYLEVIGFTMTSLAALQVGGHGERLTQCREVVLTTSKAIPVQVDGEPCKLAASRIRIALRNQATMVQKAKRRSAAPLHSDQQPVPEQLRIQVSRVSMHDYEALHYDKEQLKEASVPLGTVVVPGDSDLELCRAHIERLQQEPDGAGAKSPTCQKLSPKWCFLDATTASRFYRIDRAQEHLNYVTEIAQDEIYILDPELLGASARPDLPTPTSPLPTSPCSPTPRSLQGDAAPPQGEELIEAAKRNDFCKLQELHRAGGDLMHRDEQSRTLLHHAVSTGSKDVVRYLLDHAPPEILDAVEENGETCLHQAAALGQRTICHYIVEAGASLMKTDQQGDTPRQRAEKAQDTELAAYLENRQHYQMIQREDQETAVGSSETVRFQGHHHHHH
T1 sequence (P23743 with tags, fused parts or gaps): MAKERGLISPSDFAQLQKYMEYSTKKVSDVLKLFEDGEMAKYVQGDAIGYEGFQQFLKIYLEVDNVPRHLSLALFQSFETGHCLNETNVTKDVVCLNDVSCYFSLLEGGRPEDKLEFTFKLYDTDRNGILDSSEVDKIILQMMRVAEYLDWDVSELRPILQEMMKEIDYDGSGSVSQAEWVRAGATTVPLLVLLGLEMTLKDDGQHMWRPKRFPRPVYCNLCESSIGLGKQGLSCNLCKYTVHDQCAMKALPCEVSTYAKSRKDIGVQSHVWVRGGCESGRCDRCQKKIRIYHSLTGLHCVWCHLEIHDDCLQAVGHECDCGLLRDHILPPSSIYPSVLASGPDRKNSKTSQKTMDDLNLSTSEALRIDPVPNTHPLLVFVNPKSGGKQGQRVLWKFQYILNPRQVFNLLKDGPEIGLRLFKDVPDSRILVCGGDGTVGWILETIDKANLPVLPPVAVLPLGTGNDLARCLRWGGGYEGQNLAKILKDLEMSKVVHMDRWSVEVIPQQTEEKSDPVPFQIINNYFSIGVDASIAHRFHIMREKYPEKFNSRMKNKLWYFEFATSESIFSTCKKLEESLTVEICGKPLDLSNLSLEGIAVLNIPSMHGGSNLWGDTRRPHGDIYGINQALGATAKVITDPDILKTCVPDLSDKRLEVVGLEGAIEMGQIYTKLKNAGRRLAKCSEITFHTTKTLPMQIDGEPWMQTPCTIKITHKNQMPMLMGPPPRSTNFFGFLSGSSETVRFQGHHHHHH
Experimental for Human venous whole blood: Human Whole Blood IFN-γ Assay
Human venous whole blood (22.5 μL per well), obtained from healthy donors, was pre-treated with compounds for one hour at 37° C. in a humidified 95% air/5% CO2 incubator. The blood was stimulated with 2.5 μL anti-human CD3 and anti-CD28 mAb at a final concentration of 1 μg/mL each for 24 hours at 37° C. IFN-γ in the supernatants was measured using AlphLISA kit (Cat # AL217).

As to `C[C@@H]1CN(c2cc(=O)n(C)c3ccc(C#N)nc23)[C@@H](C)CN1C(c1ccc(F)cc1)C(F)(F)CO` (single isomer, unassigned) [Example 1311], the concentration for half-maximal inhibition (IC50) on human DGKα (liposome (LIPGLO) assay) was found to be 120 µM; at human DGKζ (liposome (LIPGLO) assay) it was 19 µM. The EC50 with Human venous whole blood (setting [1]) stood at 11 µM.

Turning to `CCC(c1ccc(OCCC2CC2)cc1)N1C[C@H](C)N(c2cc(=O)n(C)c3ccc(C#N)nc23)C[C@H]1C` (single isomer, unassigned) [Example 1446], the concentration for half-maximal inhibition (IC50) was found to be 0.26 µM at human DGKα (liposome (LIPGLO) assay) and 0.23 µM at human DGKζ (liposome (LIPGLO) assay). Also, the EC50 in the test with Human venous whole blood (setting [2]) worked out at 0.23 µM.

In the case of `CC[C@H]1CN(Cc2cc(F)c(F)c(F)c2)[C@H](C)CN1c1cc(=O)n(C)c2ccc(C#N)nc12` [Example 1149], the half-inhibitory concentration (IC50) is 0.65 µM at human DGKα (liposome (LIPGLO) assay) and 3.5 µM on human DGKζ (liposome (LIPGLO) assay). Further, in the test with Human venous whole blood (setting [1]), the half-maximal effective concentration (EC50) was 0.51 µM.

`Cc1ccc(C(c2ccc(F)cc2)N2C[C@H](C)N(c3c(F)c(=O)n(C)c4ccc(C#N)nc34)C[C@H]2C)cc1` (stereo partly drawn) [Example 335, 7-fluoro-8-((2S,5R)-4-((4-fluorophenyl)(p-tolyl)methyl)-2,5-dimethylpiperazin-1-yl)-5-methyl-6-oxo-5,6-dihydro-1,5-naphthyridine-2-carbonitrile]: the values for the IC50 at human DGKα (liposome (LIPGLO) assay) and on human DGKζ (liposome (LIPGLO) assay) were 1.2 µM and 2.5 µM, respectively. Besides, the concentration giving a half-maximal response (EC50) in the test on Human venous whole blood (setting [2]) is 1.2 µM.

`CCC(c1ccc(C2CC2)cc1F)N1C[C@H](C)N(c2cc(=O)n(C)c3ccc(C#N)nc23)C[C@H]1C` (stereo partly drawn) [Example 1219]: the IC50 at human DGKα (liposome (LIPGLO) assay) was determined as 0.067 µM; at human DGKζ (liposome (LIPGLO) assay), 0.069 µM. In addition, the concentration giving a half-maximal response (EC50) in the test on Human venous whole blood (setting [2]) was found to be 0.32 µM.

For the compound `CC(c1nc(C2CC2)no1)N1C[C@H](C)N(c2c(C#N)c(=O)n(C)c3ccc(C#N)nc23)C[C@H]1C` (single isomer, unassigned) [Example 1306], the IC50 was 9.4 µM on human DGKα (liposome (LIPGLO) assay) and 1.1 µM on human DGKζ (liposome (LIPGLO) assay). Further, the EC50 with Human venous whole blood (setting [1]) is 2.9 µM.

As for `CC[C@H]1CN(C(C)c2ccc3c(c2)OC(F)(F)O3)[C@H](CC)CN1c1cc(=O)n(C)c2ccc(C#N)nc12` (single isomer, unassigned) [Example 1368], the results for the 50% inhibitory concentration (IC50) on human DGKα (liposome (LIPGLO) assay) and on human DGKζ (liposome (LIPGLO) assay) were 0.33 µM and 0.034 µM, respectively. For the same compound, the EC50 in the test on Human venous whole blood (setting [2]) is 0.063 µM.

Regarding `CC(c1ccc2c(c1)OCCO2)N1C[C@H](C)N(c2cc(=O)n(C)c3ccc(C#N)nc23)C[C@H]1C` (single isomer, unassigned) [Example 1259], the 50% inhibitory concentration (IC50) on human DGKα (liposome (LIPGLO) assay) was determined as 5.6 µM; on human DGKζ (liposome (LIPGLO) assay), 0.67 µM. Further, in the test with Human venous whole blood (setting [2]), the concentration giving a half-maximal response (EC50) came to 4.9 µM.

With `C[C@@H]1CN(c2cc(=O)n(C)c3ccc(C#N)nc23)[C@@H](C)CN1Cc1cc(-c2ccccc2C#N)no1` [Example 1427], the half-inhibitory concentration (IC50) on human DGKα (liposome (LIPGLO) assay) turned out to be 21 µM; at human DGKζ (liposome (LIPGLO) assay), 5.2 µM. Further, the EC50 in the test on Human venous whole blood (setting [1]) was determined as 20 µM.

Take `C[C@@H]1CN(c2cc(=O)n(C)c3ccc(C#N)nc23)[C@@H](C)CN1C(c1ccc(F)cc1)c1nnnn1C(C)(C)C` (single isomer, unassigned) [Example 771]: the IC50 on human DGKα (DGKα liposome (LIPGLO) assay) was 6.3 µM; on human DGKζ (DGKζ liposome (LIPGLO) assay), 8.5 µM. Besides, the EC50 in the test on Human venous whole blood (setting [3]) was determined as 10 µM.

For the compound `CC[C@H]1CN(C(c2ccc(F)cc2)c2ccon2)[C@H](CC)CN1c1cc(=O)n(C)c2ccc(C#N)nc12` (single isomer, unassigned) [Example 1072], the half-maximal inhibitory concentration (IC50) on human DGKα (liposome (LIPGLO) assay) came to 0.1 µM; at human DGKζ (liposome (LIPGLO) assay), 0.75 µM. The concentration giving a half-maximal response (EC50) with Human venous whole blood (setting [2]) was determined as 0.77 µM.

`CC[C@H]1CN(C(c2cccc(F)c2)c2ccc(F)cn2)[C@H](CC)CN1c1cc(=O)n(C)c2ccc(C#N)nc12` (single isomer, unassigned) [Example 1042]: the 50% inhibitory concentration (IC50) turned out to be 0.17 µM at human DGKα (liposome (LIPGLO) assay) and 0.063 µM on human DGKζ (liposome (LIPGLO) assay). Further, in the test with Human venous whole blood (setting [2]), the concentration for a half-maximal effect (EC50) was 0.13 µM.

`C[C@@H]1CN(c2c(C#N)c(=O)n(C)c3ccc(C#N)nc23)[C@@H](C)CN1C(c1ccc(F)cc1)c1ccon1` (single isomer, unassigned) [Example 851]: the concentration for half-maximal inhibition (IC50) at human DGKα (DGKα liposome (LIPGLO) assay) turned out to be 1.3 µM; at human DGKζ (DGKζ liposome (LIPGLO) assay) it was 27 µM. Further, the 50% effective concentration (EC50) in the test with Human venous whole blood (setting [3]) was determined as 20 µM.

Take `C[C@@H]1CN(c2cc(=O)n(C)c3ccc(C#N)nc23)[C@@H](C)CN1C(c1ccc(F)cc1)c1nc(C2CC2)nn1C` (single isomer, unassigned) [Example 769]: the 50% inhibitory concentration (IC50) at human DGKα (DGKα liposome (LIPGLO) assay) was determined as 16 µM; on human DGKζ (DGKζ liposome (LIPGLO) assay), 0.2 µM. The EC50 in the test on Human venous whole blood (setting [3]) is 0.46 µM.

On to `CC(c1cccc(OC(F)(F)F)c1)N1C[C@H](C)N(c2cc(=O)n(C)c3ccc(C#N)nc23)C[C@H]1C` (single isomer, unassigned) [Example 1267], for which the IC50 is 3.5 µM at human DGKα (liposome (LIPGLO) assay) and 0.11 µM on human DGKζ (liposome (LIPGLO) assay). Also, the concentration giving a half-maximal response (EC50) in the test on Human venous whole blood (setting [1]) came out at 0.73 µM.

For `C[C@@H]1CN(c2cc(=O)n(C)c3ccc(C#N)nc23)[C@@H](C)CN1C(c1ccc(Cl)cc1)c1ccccn1` (single isomer, unassigned) [Example 382], the IC50 came to 0.22 µM at human DGKα (liposome (LIPGLO) assay) and 2.5 µM on human DGKζ (liposome (LIPGLO) assay). In the test with Human venous whole blood (setting [2]), the EC50 was 2.6 µM.

Regarding `CC(c1ccc(C2(C#N)CC2)cc1F)N1C[C@H](C)N(c2cc(=O)n(C)c3ccc(C#N)nc23)C[C@H]1C` (single isomer, unassigned) [Example 1251], the half-inhibitory concentration (IC50) on human DGKα (liposome (LIPGLO) assay) came out at 1.6 µM; on human DGKζ (liposome (LIPGLO) assay) it was 0.25 µM. The concentration giving a half-maximal response (EC50) in the test on Human venous whole blood (setting [1]) was found to be 3.9 µM.

With `CC[C@@H]1CN(c2cc(=O)n(C)c3ccc(C#N)nc23)[C@@H](C)CN1C(C)c1ccc(F)c(F)c1` (single isomer, unassigned) [Example 1092], the figures for the IC50 on human DGKα (liposome (LIPGLO) assay) and on human DGKζ (liposome (LIPGLO) assay) were 3.7 µM and 4 µM, respectively. Moreover, the EC50 with Human venous whole blood (setting [2]) came out at 3.2 µM.

On to `CC[C@H]1CN(C(C)c2ccc(F)cc2)[C@H](CC)CN1c1cc(=O)n(C)c2ccc(C#N)nc12` (single isomer, unassigned) [Example 1049], for which the IC50 worked out at 0.015 µM at human DGKα (liposome (LIPGLO) assay) and 0.042 µM on human DGKζ (liposome (LIPGLO) assay). In addition, the EC50 in the test on Human venous whole blood (setting [2]) is 0.13 µM.

`C[C@@H]1CN(c2c(C#N)c(=O)n(C)c3ccc(C#N)nc23)CCN1C(c1ccc(F)cc1)c1cncn1C` (single isomer, unassigned) [Example 1019]: the IC50 was determined as 32 µM at human DGKα (DGKα liposome (LIPGLO) assay) and 5.9 µM at human DGKζ (DGKζ liposome (LIPGLO) assay). In the test on Human venous whole blood (setting [3]), the EC50 came out at 20 µM.

As to `C[C@@H]1CN(c2cc(=O)n(C)c3ccc(C#N)nc23)[C@@H](C)CN1C(c1ccc(F)cc1)c1ccc(N2CCOCC2)cc1` (single isomer, unassigned) [Example 662], the 50% inhibitory concentration (IC50) on human DGKα (liposome (LIPGLO) assay) and at human DGKζ (liposome (LIPGLO) assay) was over 250 µM throughout. Moreover, the EC50 in the test with Human venous whole blood (setting [1]) amounted to 20 µM.

Regarding `C[C@@H]1CN(c2cc(=O)n(C)c3ccc(C#N)nc23)[C@@H](C)CN1C(c1ccc(F)cc1)c1ccc(P(C)(C)=O)cc1` (single isomer, unassigned) [Example 1292], the half-inhibitory concentration (IC50) amounted to 8 µM at human DGKα (liposome (LIPGLO) assay) and 4.1 µM on human DGKζ (liposome (LIPGLO) assay). For the same compound, in the test on Human venous whole blood (setting [1]), the concentration for a half-maximal effect (EC50) turned out to be 12 µM.

For the compound `COC[C@@H]1CN(c2cc(=O)n(C)c3ccc(C#N)nc23)[C@@H](C)CN1Cc1cc(F)c(F)c(F)c1` [Example 1161], the figures for the IC50 on human DGKα (liposome (LIPGLO) assay) and at human DGKζ (liposome (LIPGLO) assay) were 18 µM and 0.33 µM, respectively. For the same compound, in the test with Human venous whole blood (setting [1]), the concentration giving a half-maximal response (EC50) is 15 µM.

On to `C[C@@H]1CN(c2cc(=O)n(C)c3ccc(C#N)nc23)[C@@H](C)CN1C(c1ccc(F)cc1)c1cc(C(C)(C)C)on1` (single isomer, unassigned) [Example 732], for which the results for the IC50 on human DGKα (DGKα liposome (LIPGLO) assay) and at human DGKζ (DGKζ liposome (LIPGLO) assay) were 0.044 µM and 0.15 µM, respectively. The EC50 with Human venous whole blood (setting [3]) came out at 0.44 µM.

Regarding `C[C@@H]1CN(c2c(C#N)c(=O)n(C)c3ccc(C#N)nc23)CCN1Cc1ccccn1` [Example 990], the IC50 was 0.74 µM at human DGKα (DGKα liposome (LIPGLO) assay) and 25 µM on human DGKζ (DGKζ liposome (LIPGLO) assay). In addition, in the test on Human venous whole blood (Homo sapiens, 24 h, anti-CD3 plus anti-CD28, 24 hours, 3 μM reference compound = 100% activation), the half-maximal effective concentration (EC50) was 20 µM.

For the compound `CC(c1ccc(C2CC2)cc1F)N1C[C@H](C)N(c2cc(=O)n(C)c3ccc(C#N)nc23)C[C@H]1C` (single isomer, unassigned) [Example 1200], the IC50 at human DGKα (liposome (LIPGLO) assay) is 0.25 µM; at human DGKζ (liposome (LIPGLO) assay) it was 0.053 µM. Further, in the test on Human venous whole blood (setting [1]), the concentration for a half-maximal effect (EC50) amounted to 0.23 µM.
